Legend:
Assay in all cases: relative viability (nuclei count vs DMSO), 5 days (fraction); higher = more cells survive
[1] = compound: C1/C(=C\C2=CC=CS2)/C(=O)/C(=C/C3=CC=CS3)/C1 + CC(=O)c1c(C)c2cnc(Nc3ccc(N4CCNCC4)cn3)nc2n(C2CCCC2)c1=O [Palbociclib] (partner 0.5 µM)
Summary of the method: (§1)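 Five library-drug doses in √10 steps were combined with a fixed anchor-drug dose, or a single drug was given alone, by pin tool to lung cancer cell lines in 1536-well plates the day after seeding. Nuclei were stained and counted after 5 days. Relative viability is the nuclei count in treated wells over that in vehicle wells, taken as the median of duplicate plates.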

TPCA-1 + Trametinib = compound: C1=CC(=CC=C1C2=CC(=C(S2)NC(=O)N)C(=O)N)F [TPCA-1] + CC(=O)Nc1cccc(-n2c(=O)n(C3CC3)c(=O)c3c(Nc4ccc(I)cc4F)n(C)c(=O)c(C)c32)c1 [Trametinib] (partner 0.02 µM)
Summary of the method: as §1

TPCA-1 + Alpelisib = compound: C1=CC(=CC=C1C2=CC(=C(S2)NC(=O)N)C(=O)N)F [TPCA-1] + Cc1nc(NC(=O)N2CCC[C@H]2C(N)=O)sc1-c1ccnc(C(C)(C)C(F)(F)F)c1 [Alpelisib] (partner 2 µM)
Summary of the method: as §1

[2] = compound: C[C@]12O[C@H](C[C@]1(O)CO)n1c3ccccc3c3c4c(c5c6ccccc6n2c5c31)CNC4=O [Lestaurtinib] + CCNC(=O)c1noc(-c2cc(C(C)C)c(O)cc2O)c1-c1ccc(CN2CCOCC2)cc1 [Luminespib] (partner 0.01 µM)
Summary of the method: as §1

Row | Cell Line | relative viability ([1]; first compound 0.2 µM) | relative viability ([1]; first compound 0.6325 µM) | relative viability ([1]; first compound 2 µM) | relative viability ([1]; first compound 6.325 µM) | relative viability ([1]; first compound 20 µM) | relative viability (TPCA-1 + Trametinib; first compound 0.04 µM) | relative viability (TPCA-1 + Trametinib; first compound 0.1265 µM) | relative viability (TPCA-1 + Trametinib; first compound 0.4 µM) | relative viability (TPCA-1 + Trametinib; first compound 1.265 µM) | relative viability (TPCA-1 + Trametinib; first compound 4 µM) | relative viability (TPCA-1 + Alpelisib; first compound 0.04 µM) | relative viability (TPCA-1 + Alpelisib; first compound 0.1265 µM) | relative viability (TPCA-1 + Alpelisib; first compound 0.4 µM) | relative viability (TPCA-1 + Alpelisib; first compound 1.265 µM) | relative viability (TPCA-1 + Alpelisib; first compound 4 µM) | relative viability ([2]; first compound 0.005 µM) | relative viability ([2]; first compound 0.01581 µM) | relative viability ([2]; first compound 0.05 µM) | relative viability ([2]; first compound 0.1581 µM) | relative viability ([2]; first compound 0.5 µM)
1 | NCI-H358 | 0.187 | 0.135 | 0.152 | 0.143 | 0.125 | 0.167 | 0.165 | 0.157 | 0.158 | 0.0935 | 1 | 0.65 | 0.911 | 0.55 | 0.364 | 0.446 | 0.325 | 0.378 | 0.149 | 0.121
2 | NCI-H1734 | 0.386 | 0.336 | 0.346 | 0.225 | 0.359 | 0.754 | 0.598 | 0.7 | 0.644 | 0.628 | 0.726 | 0.571 | 0.767 | 0.69 | 0.686 | 0.2 | 0.0895 | 0.185 | 0.159 | 0.155
3 | A-427 | 0.546 | 0.552 | 0.519 | 0.481 | 0.5 | 0.771 | 0.652 | 0.875 | 0.68 | 0.718 | 1.13 | 1.04 | 1.14 | 1.06 | 1.06 | 1.03 | 0.797 | 0.649 | 0.298 | 0.185
4 | RERF-LC-KJ | 1.04 | 1.2 | 1.05 | 0.965 | 0.852 | 0.852 | 0.786 | 0.89 | 0.756 | 0.732 | 0.974 | 0.774 | 0.773 | 0.733 | 0.699 | 1.1 | 1.55 | 0.828 | 0.959 | 0.417
5 | NCI-H727 | 0.632 | 0.678 | 0.61 |  | 0.669 | 0.393 | 0.361 | 0.442 | 0.421 | 0.357 | 0.591 | 0.485 | 0.597 | 0.504 | 0.507 | 0.478 | 0.401 | 0.427 | 0.284 | 0.387
6 | LCLC-97TM1 | 0.255 | 0.228 | 0.203 | 0.21 | 0.196 | 0.208 | 0.152 | 0.163 | 0.205 | 0.204 | 0.249 | 0.241 | 0.223 | 0.248 | 0.187 | 0.71 | 0.678 | 0.363 | 0.62 | 0.233
7 | BEN | 0.504 | 0.531 | 0.511 | 0.411 | 0.518 | 1.04 | 0.736 | 1.18 | 1.39 | 1.04 | 1.14 | 0.842 | 1.13 | 1.19 | 0.806 | 0.249 | 0.298 | 0.278 | 0.326 | 0.213
8 | NCI-H2023 | 0.454 | 0.386 | 0.495 | 0.235 | 0.332 | 0.588 | 0.352 | 0.556 | 0.487 | 0.426 | 0.598 | 0.522 | 0.634 | 0.489 | 0.417 | 0.848 | 0.983 | 0.48 | 0.524 | 0.119
9 | LC-2-ad | 0.526 | 0.483 | 0.488 | 0.333 | 0.481 | 0.946 | 0.941 | 0.958 | 0.968 | 0.765 | 0.937 | 0.775 | 0.99 | 0.82 | 0.326 | 1.1 | 1.21 | 0.799 | 0.617 | 0.372
10 | NCI-H647 | 0.441 | 0.442 | 0.378 | 0.398 | 0.405 | 0.553 | 0.444 | 0.47 | 0.382 | 0.277 | 1.35 | 1.04 | 1.23 | 0.834 | 0.562 | 0.153 | 0.115 | 0.12 | 0.0972 | 0.0647
11 | NCI-H1755 | 0.432 | 0.454 | 0.458 | 0.333 | 0.409 | 0.846 | 0.716 | 0.72 | 0.714 | 0.591 | 0.937 | 0.88 | 0.893 | 0.806 | 0.526 | 0.41 | 0.42 | 0.453 | 0.211 | 0.204
12 | EPLC-272H | 0.326 | 0.327 | 0.356 | 0.213 | 0.345 | 0.324 | 0.22 | 0.329 | 0.332 | 0.265 | 1.09 | 0.793 | 1.06 | 0.851 | 0.863 | 0.196 | 0.235 | 0.184 | 0.241 | 0.133
13 | NCI-H1437 | 0.322 | 0.314 | 0.282 | 0.307 | 0.336 | 0.581 | 0.493 | 0.521 | 0.511 | 0.453 | 0.959 | 0.869 | 1.04 | 0.85 | 0.755 | 1.21 | 1.26 | 1.06 | 1.16 | 0.962
14 | EKVX | 0.383 | 0.388 | 0.367 |  | 0.409 | 0.507 |  | 0.376 | 0.216 | 0.313 | 0.913 | 0.838 | 0.934 | 0.726 | 0.795 | 0.951 | 0.876 | 0.999 | 0.821 | 0.541
15 | NCI-H1651 | 0.48 | 0.554 | 0.563 | 0.47 | 0.527 | 0.894 | 0.799 | 0.838 | 0.824 | 0.787 | 1.03 | 0.82 | 0.988 | 1.09 | 0.863 | 0.866 | 0.938 | 0.897 | 0.806 | 0.461

Source: the supplement of paper PMC10307832
